Experimental data taken from patent US6617126B1, “Method for improving the growth and colorimetric detection of bacteria, yeasts, fungi or cocci” (priority 1996, dated 2003).
≈ marks a conversion by molar mass, not a printed value. Where two headings read alike, the source gives them in different places.

Experiments:
[1] = test system: Mycobacterium tuberculosis
[2] = test system: Mycobacterium tuberculosis; test: microbe, parasite or virus in culture
[3] = H37RV, read-out: MIC (minimum inhibiting concentration), strain M.tb. H37 Rv
[4] = read-out: MIC (minimum inhibiting concentration), strain Clin. M.tb 1
[5] = read-out: MIC (minimum inhibiting concentration), strain Clin. M.tb 15

Row | SMILES | MIC (minimum inhibiting concentration) ([1]; strain Clin. M.tb 1) | MIC (minimum inhibiting concentration) ([1]; strain Clin. M.tb 15) | MIC (minimum inhibiting concentration) ([1]; strain M.tb. H37 Rv) | MIC [2, 3] | MIC [2, 4] | MIC [2, 5]
1 | NNC(=O)c1ccncc1 [Isoniacid (INA), Isoniacid] | 0.03 µg/mL (≈ 0.219 µM) | 0.03 µg/mL (≈ 0.219 µM) | 0.06 µg/mL (≈ 0.438 µM) |  |  | 
2 | CO[C@H]1/C=C/O[C@@]2(C)Oc3c(C)c(O)c4c(O)c(c(/C=N/N5CCN(C)CC5)c(O)c4c3C2=O)NC(=O)/C(C)=C\C=C\[C@H](C)[C@H](O)[C@@H](C)[C@@H](O)[C@@H](C)[C@H](OC(C)=O)[C@@H]1C [Rifampicin (RMP), Rifampicin] |  |  |  | 2 µg/mL (≈ 2.43 µM) | 1 µg/mL (≈ 1.22 µM) | 2 µg/mL (≈ 2.43 µM)
3 | CC[C@@H](CO)NCCN[C@@H](CC)CO [Ethambutol (EMB), Ethambutol] |  |  |  | 0.5 µg/mL (≈ 2.45 µM) | 0.25 µg/mL (≈ 1.22 µM) | 0.5 µg/mL (≈ 2.45 µM)
